Results: US20250179061A1 (SIRONAX LTD., priority 2022, published 2025)

system: HT-29 cells; assay: HT-29 necroptosis cell viability assay (TNF-α/SMAC mimetic/zVAD-FMK, CellTiter-Glo); assay type: cell-based; conditions: Homo sapiens, HT-29, 20 h, read-out: Activity
Method in brief: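 HT-29 cells (~5,000/well, overnight) in FBS-free McCoy's 5A with TNF-α 10 ng/ml, SMAC mimetic 6 μM and zVAD-FMK 10 μM plus 10-point 1:3 compound titration, 20 h at 37°C. ATP measured by CellTiter-Glo luminescence; IC50 as geometric mean of duplicates.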

Question: Which IC50 does the source give for `COC(=O)c1ncc(Oc2ccc(-n3ncn(Cc4c(F)cccc4F)c3=O)cc2F)s1` [Example 105, methyl 5-(4-(4-(2,6-difluorobenzyl)-5-oxo-4,5-dihydro-1H-1,2,4-triazol-1-yl)-2-fluorophenoxy)thiazole-2-carboxylate] here?
Answer: The IC50 was 100 to 1000 nM.

same assay, conditions: Homo sapiens; HT-29 cells stimulated with TNF-α (10 ng/ml), SMAC mimetic (6 μM) and zVAD-FMK (10 μM); 20 hours; CellTiter-Glo ATP luminescence; geometric mean IC50 from 10 points; read-out: Activity

Question: Which IC50 does the source give for `CCOC1CN(c2cc(Oc3ccc(-n4ncn(Cc5c(F)cccc5F)c4=O)cc3)c(C)s2)C1` [Example 85, 4-(2,6-difluorobenzyl)-2-(4-((5-(3-ethoxyazetidin-1-yl)-2-methylthiophen-3-yl)oxy)phenyl)-2,4-dihydro-3H-1,2,4-triazol-3-one] here?
Answer: Its IC50 is > 10000 nM.

Question: How did the IC50 turn out when `Cc1nc(C#N)sc1Oc1ccc(-n2ncn(Cc3c(F)cccc3F)c2=O)cc1Cl` [Example 86, 5-(2-chloro-4-(4-(2,6-difluorobenzyl)-5-oxo-4,5-dihydro-1H-1,2,4-triazol-1-yl)phenoxy)-4-methylthiazole-2-carbonitrile] was run?
Answer: Its IC50 is < 100 nM.

Question: `Cc1nc(C#N)sc1Oc1ccc(-n2ncn(Cc3c(F)cccc3F)c2=O)cc1` [Example 87, 5-(4-(4-(2,6-difluorobenzyl)-5-oxo-4,5-dihydro-1H-1,2,4-triazol-1-yl)phenoxy)-4-methylthiazole-2-carbonitrile] was tested. Which IC50 did it give?
Answer: Its IC50 is < 100 nM.

Question: `Cc1nc(C(N)=O)sc1Oc1ccc(-n2ncn(Cc3c(F)cccc3F)c2=O)cc1Cl` [Example 88, 5-(2-chloro-4-(4-(2,6-difluorobenzyl)-5-oxo-4,5-dihydro-1H-1,2,4-triazol-1-yl)phenoxy)-4-methylthiazole-2-carboxamide] was tested. Which IC50 did it give?
Answer: The IC50 was < 100 nM.

Question: Which IC50 does the source give for `CC(=O)Nc1nc(C)c(Oc2ccc(-n3ncn(Cc4c(F)cccc4F)c3=O)cc2F)s1` [Example 89, N-(5-(4-(4-(2,6-difluorobenzyl)-5-oxo-4,5-dihydro-1H-1,2,4-triazol-1-yl)-2-fluorophenoxy)-4-methylthiazol-2-yl)acetamide] here?
Answer: The IC50 was < 100 nM.

Question: `Nc1ncc(Oc2ccc(-n3ncn(Cc4c(F)cccc4F)c3=O)cc2)s1` [Example 90, 2-(4-((2-aminothiazol-5-yl)oxy)phenyl)-4-(2,6-difluorobenzyl)-2,4-dihydro-3H-1,2,4-triazol-3-one] was tested. Which IC50 did it give?
Answer: Its IC50 is 100 to 1000 nM.

Question: `Cc1nc(N)sc1Oc1ccc(-n2ncn(Cc3c(F)cccc3F)c2=O)cc1` [Example 91, 2-(4-((2-amino-4-methylthiazol-5-yl)oxy)phenyl)-4-(2,6-difluorobenzyl)-2,4-dihydro-3H-1,2,4-triazol-3-one] was tested. Which IC50 did it give?
Answer: The IC50 was < 100 nM.

Question: Which IC50 does the source give for `COC(=O)c1nc(Oc2ccc(-n3ncn(Cc4c(F)cccc4F)c3=O)cc2)sc1C` [Example 92, methyl 2-(4-(4-(2,6-difluorobenzyl)-5-oxo-4,5-dihydro-1H-1,2,4-triazol-1-yl)phenoxy)-5-methylthiazole-4-carboxylate] here?
Answer: The IC50 was 100 to 1000 nM.

Question: Which IC50 does the source give for `CCOC(=O)c1scnc1Oc1ccc(-n2ncn(Cc3c(F)cccc3F)c2=O)cc1F` [Example 93, ethyl 4-(4-(4-(2,6-difluorobenzyl)-5-oxo-4,5-dihydro-1H-1,2,4-triazol-1-yl)-2-fluorophenoxy)thiazole-5-carboxylate] here?
Answer: Its IC50 is 100 to 1000 nM.

Question: For `Cn1ncnc1Oc1ccc(-n2ncn(Cc3c(F)cccc3F)c2=O)cc1` [Example 94, 4-(2,6-difluorobenzyl)-2-(4-((1-methyl-1H-1,2,4-triazol-5-yl)oxy)phenyl)-2,4-dihydro-3H-1,2,4-triazol-3-one], which IC50 is on record?
Answer: Its IC50 is 1000 to 10000 nM.

Question: With `Cn1ncc([N+](=O)[O-])c1Oc1ccc(-n2ncn(Cc3c(F)cccc3F)c2=O)cc1` [Example 95, 4-(2,6-difluorobenzyl)-2-(4-((1-methyl-4-nitro-1H-pyrazol-5-yl)oxy)phenyl)-2,4-dihydro-3H-1,2,4-triazol-3-one] as the molecule, how does the IC50 read?
Answer: Its IC50 is 100 to 1000 nM.

Question: `O=c1n(Cc2c(F)cccc2F)cnn1-c1ccc(Oc2nc(CO)cs2)cc1` [Example 96, 4-(2,6-difluorobenzyl)-2-(4-((4-(hydroxymethyl)thiazol-2-yl)oxy)phenyl)-2,4-dihydro-3H-1,2,4-triazol-3-one] was tested. Which IC50 did it give?
Answer: The IC50 was 100 to 1000 nM.

Question: `Cc1nc(C)c(Oc2ccc(-n3ncn(Cc4c(F)cccc4F)c3=O)cc2)s1` [Example 97, 4-(2,6-difluorobenzyl)-2-(4-((2,4-dimethylthiazol-5-yl)oxy)phenyl)-2,4-dihydro-3H-1,2,4-triazol-3-one] was tested. Which IC50 did it give?
Answer: Its IC50 is < 100 nM.

Question: `Cc1csc(COc2ccc(-n3ncn(Cc4c(F)cccc4F)c3=O)cc2)n1` [Example 98, 4-(2,6-difluorobenzyl)-2-(4-((4-methylthiazol-2-yl)methoxy)phenyl)-2,4-dihydro-3H-1,2,4-triazol-3-one] was tested. Which IC50 did it give?
Answer: The IC50 was 100 to 1000 nM.

Question: Which IC50 does the source give for `Cc1ncc(Oc2ccc(-n3ncn(Cc4c(F)cccc4F)c3=O)cc2)s1` [Example 99, 4-(2,6-difluorobenzyl)-2-(4-((2-methylthiazol-5-yl)oxy)phenyl)-2,4-dihydro-3H-1,2,4-triazol-3-one] here?
Answer: The IC50 was < 100 nM.

Question: Which IC50 does the source give for `Cc1nc(C(N)=O)c(Oc2ccc(-n3ncn(Cc4c(F)cccc4F)c3=O)cc2F)s1` [Example 100, 5-(4-(4-(2,6-difluorobenzyl)-5-oxo-4,5-dihydro-1H-1,2,4-triazol-1-yl)-2-fluorophenoxy)-2-methylthiazole-4-carboxamide] here?
Answer: The IC50 was 100 to 1000 nM.

Question: For `NC(=O)c1scnc1Oc1ccc(-n2ncn(Cc3c(F)cccc3F)c2=O)cc1F` [Example 101, 4-(4-(4-(2,6-difluorobenzyl)-5-oxo-4,5-dihydro-1H-1,2,4-triazol-1-yl)-2-fluorophenoxy)thiazole-5-carboxamide], which IC50 is on record?
Answer: The IC50 was 100 to 1000 nM.

Question: Which IC50 does the source give for `Cc1nc(C(N)=O)cn1Cc1ccc(-n2nc3n(c2=O)C(c2ccccc2)CC3)cc1F` (stereo not drawn) [Example 102, 1-(2-fluoro-4-(3-oxo-5-phenyl-6,7-dihydro-3H-pyrrolo[2,1-c][1,2,4]triazol-2(5H)-yl)benzyl)-2-methyl-1H-imidazole-4-carboxamide] here?
Answer: The IC50 was < 100 nM.

Question: With `Cc1nc(C(N)=O)cn1Cc1ccc(-n2ncn(Cc3c(F)cccc3F)c2=O)cc1F` [Example 103, 1-(4-(4-(2,6-difluorobenzyl)-5-oxo-4,5-dihydro-1H-1,2,4-triazol-1-yl)-2-fluorobenzyl)-2-methyl-1H-imidazole-4-carboxamide] as the molecule, how does the IC50 read?
Answer: The IC50 was 100 to 1000 nM.

Question: With `Cc1ncc(C(N)=O)n1Cc1ccc(-n2ncn(Cc3c(F)cccc3F)c2=O)cc1F` [Example 104, 1-(4-(4-(2,6-difluorobenzyl)-5-oxo-4,5-dihydro-1H-1,2,4-triazol-1-yl)-2-fluorobenzyl)-2-methyl-1H-imidazole-5-carboxamide] as the molecule, how does the IC50 read?
Answer: Its IC50 is < 100 nM.

Question: With `COC(=O)c1nc(C)c(Oc2ccc(-n3ncn(Cc4c(F)cccc4C#N)c3=O)cc2F)s1` [Example 106, methyl 5-(4-(4-(2-cyano-6-fluorobenzyl)-5-oxo-4,5-dihydro-1H-1,2,4-triazol-1-yl)-2-fluorophenoxy)-4-methylthiazole-2-carboxylate] as the molecule, how does the IC50 read?
Answer: Its IC50 is < 100 nM.

Question: Which IC50 does the source give for `COC(=O)c1nc(C)c(Oc2ccc(-n3ncn(Cc4ccccc4F)c3=O)cc2F)s1` [Example 107, methyl 5-(2-fluoro-4-(4-(2-fluorobenzyl)-5-oxo-4,5-dihydro-1H-1,2,4-triazol-1-yl)phenoxy)-4-methylthiazole-2-carboxylate] here?
Answer: Its IC50 is < 100 nM.

Question: Which IC50 does the source give for `COC(=O)c1nc(C)c(Oc2ccc(-n3ncn(Cc4cc(F)ccc4F)c3=O)cc2F)s1` [Example 108, methyl 5-(4-(4-(2,5-difluorobenzyl)-5-oxo-4,5-dihydro-1H-1,2,4-triazol-1-yl)-2-fluorophenoxy)-4-methylthiazole-2-carboxylate] here?
Answer: The IC50 was < 100 nM.
